This is an account of results in US12410160B2 (Gilead Sciences, Inc., priority 2021, dated 2025).

For assay [1], the target named is human KHK-C (Homo sapiens (Human), UniProt P50053). As to the kind of experiment: KHK Biochemical Assay (IC50), ADP-Glo, KHK-C. Particulars: average of at least two separate assays. An outline of the steps: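 ADP-Glo luminescence measured ADP made over a 4 h room-temperature reaction of ATP plus fructose, started after 30 min compound–enzyme pre-incubation. Buffer: 50 mM Hepes pH 7.4, 140 mM KCl, 5 mM MgCl2, 0.01% Triton-X. Enzyme was His-tagged, BL21 (DE3)-expressed, Ni-NTA-purified; compounds in 1:3 DMSO dilution series.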
Chain of human KHK-C (P50053 whole entry): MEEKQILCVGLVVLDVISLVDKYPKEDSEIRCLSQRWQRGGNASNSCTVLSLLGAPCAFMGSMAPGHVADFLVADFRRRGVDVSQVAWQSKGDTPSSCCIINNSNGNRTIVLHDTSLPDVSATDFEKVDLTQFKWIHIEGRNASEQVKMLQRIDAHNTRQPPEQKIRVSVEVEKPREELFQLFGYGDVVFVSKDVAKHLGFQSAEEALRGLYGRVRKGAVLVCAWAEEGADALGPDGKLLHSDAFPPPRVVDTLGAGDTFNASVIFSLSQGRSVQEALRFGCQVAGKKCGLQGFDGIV
For orientation: ADP-Glo turns the ADP formed in a reaction into a luminescent signal.

The subject of assay [2] is HepG2 cells. As to the kind of experiment: F1P Cell-Based Assay (EC50), 13C6-fructose-1-phosphate in HepG2 cells (cell culture medium or 50% human plasma). The method, then: F1P Cell-Based Assay (EC50)
Compounds were serially diluted (1:3) in DMSO. The LabCyte ECHO Acoustic dispenser system was used to pre-spot the assay plates (Greiner, Catalog #781091) with 400 nL (200-fold final dilution in 80 μL assay volume) of compound. 25,000 cells/well HepG2 cells (ATCC Catalog #HB-8065) were plated in a 40 μL volume/well in DMEM medium with 4.5 g/L glucose, 1× Penicillin-Streptomycin-Glutamine, and 10% FBS, using a BioTEK dispenser in a biological hood and incubated overnight at 37° C., 5% CO2, 90% humidity. 40 μL/well serum free assay medium (for F1P assay in cell culture medium), or 40 μL/well 100% human plasma (for F1P assay in 50% human plasma) were then added to the plates on the following day, and incubated for 1 hour at 37° C., 5% CO2, 90% humidity. ^13C6-labelled fructose (Sigma, Catalog #587621) in sterile PBS was added to the plates at a final concentration of 5 mM. The plates were incubated for 2 hours at 37° C., 5% CO2, 90% humidity. The assay was quenched by washing the cells with sterile PBS and adding 60 μL/well of 80% (v/v) methanol, 2 mM ammonium acetate and 2.5 μM Crotonyl-CoA, using a BioTEK washer-dispenser system. The plates were then sealed and stored in the −80° C. freezer until ready for RapidFire readout. ^13C6-fructose-1-phosphate in individual wells was quantified using the Agilent RapidFire High-Throughput MS system in negative mode using a […]. Mobile Phase 1 consisted of 20 mM ammonium acetate with 0.05% acetic acid in 100% methanol. Mobile phase 2 consisted of 5 mM octylamine in water (pH adjusted to 5 using acetic acid). F1P signals in individual wells were normalized by crotonyl CoA internal control.

The mark [3] stands for this setting: Homo sapiens, HepG2, HepG2 cells, 50% human plasma, read-out: F1P 50% HP EC50.
[4] abbreviates: Homo sapiens, HepG2, read-out: F1P 10% FBS EC50, HepG2 cells, cell culture medium (10% FBS).
Setting [5] is: HepG2 cells, 50% human plasma, read-out: F1P 50% HP EC50.
The mark [6] stands for this setting: read-out: F1P 10% FBS EC50, HepG2 cells, cell culture medium (10% FBS).

Molecules are shown by their SMILES. Read-outs that look alike come from different tables or passages of the source.

Regarding `N#CCC1CCN1c1nc(-c2ccc3c(c2)S(=O)(=O)CCNC3)c2c(n1)C(F)(F)CC2` (stereo not drawn) [Example 791, 2-(1-(4-(1,1-dioxido-2,3,4,5-tetrahydrobenzo[f][1,4]thiazepin-8-yl)-7,7-difluoro-6,7-dihydro-5H-cyclopenta[d]pyrimidin-2-yl)azetidin-2-yl)acetonitrile], the IC50 (commonly the concentration at which inhibition is half-maximal) in assay [1] is 80.5 nM. Also, the results for the EC50 in assay [2] (setting [3]) and in assay [2] (setting [4]) were more than 500 nM and 316 nM, respectively.

As for `C[C@H]1[C@H](O)CN1c1nc(-c2ccc3c(c2)OC[C@@H]3NS(=O)(=O)c2ccccc2)c2c(n1)C(F)(F)CC2` [Example 626, N-((R)-6-(7,7-difluoro-2-((2S,3R)-3-hydroxy-2-methylazetidin-1-yl)-6,7-dihydro-5H-cyclopenta[d]pyrimidin-4-yl)-2,3-dihydrobenzofuran-3-yl)benzenesulfonamide], the IC50 in assay [1] turned out to be 26.8 nM. Besides, the EC50 (in general, the midpoint of the concentration-response curve) in assay [2] (setting [3]) came out at 123 nM; in assay [2] (setting [4]), 35.6 nM.

`C[C@H]1CCN1c1nc(-c2cccc(N=S(C)(=O)C3CC3)c2)c2c(n1)C(F)(F)CC2` (stereo partly drawn) [Example 668, cyclopropyl-[3-[7,7-difluoro-2-[(2S)-2-methylazetidin-1-yl]-5,6-dihydrocyclopenta[d]pyrimidin-4-yl]phenyl]imino-methyl-oxo-λ^6-sulfane]: in assay [1], inhibition was half-maximal at 32.1 nM (IC50). In addition, the half-maximal effective concentration (EC50) in assay [2] (setting [3]) was more than 500 nM; in assay [2] (setting [4]) it was 46.7 nM.

In assay [1], `C[C@H]1[C@H](O)CN1c1nc(-c2cccc(N=S(C)(=O)C3CC3)c2)c2c(n1)C(F)(F)CC2` (stereo partly drawn) [Example 667, (2S,3R)-1-[4-[3-[(cyclopropyl-methyl-oxo-λ^6-sulfanylidene)amino]phenyl]-7,7-difluoro-5,6-dihydrocyclopenta[d]pyrimidin-2-yl]-2-methyl-azetidin-3-431] gave an IC50 of 42.3 nM. The EC50 was 305 nM in assay [2] (setting [5]) and 61.3 nM in assay [2] (setting [6]).

For the compound `C[C@H]1CCN1c1nc(-c2ccc3c(c2)CCNC3C(F)F)c2c(n1)C(F)(F)CC2` (stereo partly drawn) [Example 836, 6-(7,7-difluoro-2-((S)-2-methylazetidin-1-yl)-6,7-dihydro-5H-cyclopenta[d]pyrimidin-4-yl)-1-(difluoromethyl)-1,2,3,4-tetrahydroisoquinoline], in assay [1] (ADP-Glo), the IC50 was 5.8 nM. For the same compound, the EC50 in assay [2] (setting [3]) is 158 nM; in assay [2] (setting [4]), 16.9 nM.

Turning to `C[C@H]1[C@H](O)CN1c1nc(-c2ccc3c(c2)CCC3(C)NS(C)(=O)=O)c2c(n1)C(F)(F)CC2` (stereo partly drawn) [Example 810, N-[5-[7,7-difluoro-2-[(2S,3R)-3-hydroxy-2-methyl-azetidin-1-yl]-5,6-dihydrocyclopenta[d]pyrimidin-4-yl]-1-methyl-indan-1-yl]methanesulfonamide], in assay [1] (ADP-Glo), inhibition was half-maximal at 34.9 nM (IC50). Further, the EC50 is more than 500 nM in assay [2] (setting [3]) and 206 nM in assay [2] (setting [4]).

Consider `C[C@H]1[C@H](O)CN1c1nc(-c2ccc3c(c2)OCCNC32COC2)c2c(n1)C(F)(F)CC2` [Example 521, (2S,3R)-1-(4-(3,4-dihydro-2H-spiro[benzo[f][1,4]oxazepine-5,3′-oxetan]-8-yl)-7,7-difluoro-6,7-dihydro-5H-cyclopenta[d]pyrimidin-2-yl)-2-methylazetidin-3-ol], for which inhibition in assay [1] was half-maximal at 9.8 nM (IC50). Also, the EC50 in assay [2] (setting [3]) is more than 100 nM; in assay [2] (setting [4]), 68.4 nM.

In turn, `C[C@H]1[C@H](O)CN1c1nc(-c2cccc(S(=N)(=O)C(F)F)c2)c2c(n1)C(F)(F)CC2` (stereo partly drawn) [Example 603, (3-(7,7-difluoro-2-((2S,3R)-3-hydroxy-2-methylazetidin-1-yl)-6,7-dihydro-5H-cyclopenta[d]pyrimidin-4-yl)phenyl)(difluoromethyl)(imino)-λ^6-sulfanone] came in with an IC50 in assay [1] of 25.5 nM. For the same compound, the EC50 in assay [2] (setting [3]) was found to be 103 nM; in assay [2] (setting [4]), 77.2 nM.

As to `C[C@H]1CCN1c1nc(-c2ccc3c(c2)S(=O)(=O)CC3N)c2c(n1)C(F)(F)CC2` (stereo partly drawn) [Example 656, 6-[7,7-difluoro-2-[(2S)-2-methylazetidin-1-yl]-5,6-dihydrocyclopenta[d]pyrimidin-4-yl]-1,1-dioxo-2,3-dihydrobenzothiophen-3-amine], inhibition in assay [1] was half-maximal at 1.7 nM (IC50). Moreover, the EC50 amounted to 11.8 nM in assay [2] (setting [3]) and 4.5 nM in assay [2] (setting [4]).

The compound `C[C@H]1[C@H](O)CN1c1nc(-c2ccc3c(c2)CCCCC3NS(C)(=O)=O)c2c(n1)C(F)(F)CC2` (stereo partly drawn) [Example 547, N-(2-(7,7-difluoro-2-((2S,3R)-3-hydroxy-2-methylazetidin-1-yl)-6,7-dihydro-5H-cyclopenta[d]pyrimidin-4-yl)-6,7,8,9-tetrahydro-5H-benzo[7]annulen-5-yl)methanesulfonamide] gave an IC50 in assay [1] of 33.6 nM. The figures for the EC50 in assay [2] (setting [3]) and in assay [2] (setting [4]) were more than 500 nM and 314 nM, respectively.

In the case of `NC1(c2ccc(-c3nc(N4CC(F)(F)[C@@H]4CO)nc4c3CCC4(F)F)cc2)CS(=O)(=O)C1` (single isomer, unassigned) [Example 784], the IC50 in assay [1] worked out at 7.9 nM. Besides, the EC50 in assay [2] (setting [3]) turned out to be 91.9 nM; in assay [2] (setting [4]) it was 119 nM.

For the compound `CC(=O)NCc1cc(-c2nc(N3C[C@@H](O)[C@@H]3C)nc3c2CCC3(F)F)cc2c1OCC2` [Example 766, N-[[5-[7,7-difluoro-2-[(2S,3R)-3-hydroxy-2-methyl-azetidin-1-yl]-5,6-dihydrocyclopenta[d]pyrimidin-4-yl]-2,3-dihydrobenzofuran-7-yl]methyl]acetamide], in assay [1], it took 11.8 nM to reach half-maximal inhibition (IC50). For the same compound, the values for the EC50 in assay [2] (setting [5]) and in assay [2] (setting [6]) were 150 nM and 38.4 nM, respectively.

Take `C[C@H]1[C@H](F)CN1c1nc(-c2cccc(S(C)(=N)=O)c2)c2c(n1)C(F)(F)CC2` (stereo partly drawn) [Example 710, (3-(7,7-difluoro-2-((2S,3R)-3-fluoro-2-methylazetidin-1-yl)-6,7-dihydro-5H-cyclopenta[d]pyrimidin-4-yl)phenyl)(imino)(methyl)-λ^6-sulfanone]: the IC50 in assay [1] stood at 7.2 nM. Moreover, the EC50 in assay [2] (setting [3]) came to 42.6 nM; in assay [2] (setting [4]), 12.9 nM.

`C[C@H]1[C@H](O)CN1c1nc(-c2ccc(C3(N)CCS(=O)(=O)C3)cc2)c2c(n1)C(F)(F)CC2` (stereo partly drawn) [Example 793]: in assay [1] (ADP-Glo), the IC50 came out at 4.8 nM. The figures for the EC50 in assay [2] (setting [3]) and in assay [2] (setting [4]) were 75.5 nM and 55.6 nM, respectively.

As to `CC[C@H]1CNC(=O)c2ccc(-c3nc(N4C[C@@H](O)[C@@H]4C)nc4c3CCC4(F)F)cc2O1` (single isomer, unassigned) [Example 592], the midpoint of inhibition in assay [1], the IC50, lay at 7.3 nM. For the same compound, the EC50 in assay [2] (setting [3]) came out at 56.9 nM; in assay [2] (setting [4]) it was 15.3 nM.

In turn, `C[C@H]1[C@H](O)CN1c1nc(-c2ccc3c(c2)C(C)(C)C[C@H]3NS(C)(=O)=O)c2c(n1)C(F)(F)CC2` (single isomer, unassigned) [Example 631] registered an IC50 in assay [1] of 10.7 nM. Further, the EC50 in assay [2] (setting [3]) was more than 500 nM; in assay [2] (setting [4]), 78.9 nM.

Consider `CS(=N)(=O)c1cccc(-c2nc(N3CC[C@@H]3C#N)nc3c2CCC3(F)F)c1` (stereo partly drawn) [Example 709, (2R)-1-(7,7-difluoro-4-(3-(S-methylsulfonimidoyl)phenyl)-6,7-dihydro-5H-cyclopenta[d]pyrimidin-2-yl)azetidine-2-carbonitrile], for which, in assay [1], the IC50 turned out to be 41.7 nM. For the same compound, the EC50 in assay [2] (setting [3]) worked out at 101 nM; in assay [2] (setting [4]), 75.2 nM.

On to `C[C@H]1[C@H](O)CN1c1nc(-c2ccc3c(c2)C2CC(C2)NC3=O)c2c(n1)C(F)(F)CC2` [Example 520, 7-(7,7-difluoro-2-((2S,3R)-3-hydroxy-2-methylazetidin-1-yl)-6,7-dihydro-5H-cyclopenta[d]pyrimidin-4-yl)-2,3,4,5-tetrahydro-1H-3,5-methanobenzo[c]azepin-1-one], for which the midpoint of inhibition in assay [1], the IC50, lay at 11.1 nM. Besides, the figures for the EC50 in assay [2] (setting [3]) and in assay [2] (setting [4]) were 109 nM and 49.8 nM, respectively.

`C[C@H]1CCN1c1nc(-c2ccc3c(c2)[C@H](NS(C)(=O)=O)CC3)c2c(n1)C(F)(F)CC2` [Example 608, N—((R)-6-(7,7-difluoro-2-((S)-2-methylazetidin-1-yl)-6,7-dihydro-5H-cyclopenta[d]pyrimidin-4-yl)-2,3-dihydro-1H-inden-1-yl)methanesulfonamide]: the IC50 in assay [1] was determined as 0.7 nM. For the same compound, the EC50 came to 23.2 nM in assay [2] (setting [3]) and 6.8 nM in assay [2] (setting [4]).

As to `CCC1CNC(=O)c2ccc(-c3nc(N4C[C@@H](O)[C@@H]4C)nc4c3CCC4(F)F)cc2O1` (stereo partly drawn) [Example 591, 8-(7,7-difluoro-2-((2S,3R)-3-hydroxy-2-methylazetidin-1-yl)-6,7-dihydro-5H-cyclopenta[d]pyrimidin-4-yl)-2-ethyl-3,4-dihydrobenzo[f][1,4]oxazepin-5(2H)-one], the IC50 in assay [1] was found to be 5.5 nM. For the same compound, the EC50 is 36 nM in assay [2] (setting [3]) and 13.5 nM in assay [2] (setting [4]).
